From ChEMBL document CHEMBL1201862, “PubChem BioAssay data set” (2004) come the findings set out here.

Molecules are shown by their SMILES.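 Five concentrations, 48 hours, 96-well plates. The concentration for 50% growth inhibition is given as GI50.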 The source made the active and inactive calls. No stated cut-off is given here; in the data, active = GI50 up to about 1.1 µM and inactive = higher. Non-standard residues stand in square brackets, D forms with d. Residues, ends and D or L forms follow the SMILES beside them. ξ: configuration not given here. *: point of attachment. NMeF = CN[C@@H](Cc1ccccc1)C(=O)O; NMeN = CN[C@@H](CC(N)=O)C(=O)O; NMeV = CN[C@H](C(=O)O)C(C)C; ξNMeV = CNC(C(=O)O)C(C)C; Boc = CC(C)(C)OC(=O)*; ξNMeA = CNC(C)C(=O)O; ξV = CC(C)C(N)C(=O)O Bounds are passed on as bounds.

Common to all, as to assay: NCI anticancer screen, dose series, 48 h
The test system of assay [1] is RPMI-8226.
Assay [2] has as its system SK-MEL-5.
Assay [3] relates to Hs-578T.
The subject of assay [4] is MDA-MB-231.
The subject of assay [5] is HL-60.
Assay [6] relates to U-251.
Assay [7] deals with ACHN.
Assay [8] has as its system NCI-H522.
For assay [9], the system named is EKVX.
Assay [10] relates to TK-10.
Assay [11] concerns KM12.
Assay [12] relates to NCI-H226.
For assay [13], the system named is SK-MEL-2.
The subject of assay [14] is COLO 205.
Assay [15] relates to OVCAR-4.
For assay [16], the system named is M14.
Assay [17] concerns HCT-116.
Assay [18] deals with Malme-3M.
In assay [19] the test system is OVCAR-5.
For assay [20], the system named is MDA-N.

As to `Cc1cc(/N=C/c2ccc(N(C)C)cc2)n(-c2ccccc2)n1`, the GI50 is 91.8 µM (inactive) in assay [1]; 40.2 µM (inactive) in assay [2]; 29.9 µM (inactive) in assay [3]; 91.6 µM (inactive) in assay [4]; 17.9 µM (inactive) in assay [5]; 27.4 µM (inactive) in assay [6]. Further, the GI50 was > 100 µM (inactive) in assay [7]; 30.1 µM (inactive) in assay [8]; 57.8 µM (inactive) in assay [9]; 46.8 µM (inactive) in assay [10]; 16.7 µM (inactive) in assay [11]; 50.5 µM (inactive) in assay [12]. The GI50 in [13] was > 100 µM (inactive); in assay [14] it was 24.8 µM (inactive); in [15], > 100 µM (inactive); in assay [16], 49.2 µM (inactive); in assay [17] it was 25.5 µM (inactive); in assay [18] it was > 100 µM (inactive). In addition, the GI50 in assay [19] was > 100 µM (inactive); in [20], 5.86 µM (inactive).

Take `CC1=CP(=O)(c2c(C(C)C)cc(C(C)C)cc2C(C)C)CCC1Cl` (stereo not drawn): the GI50 in assay [1] was 13.3 µM (inactive); in assay [2], 16.6 µM (inactive); in assay [3] it was 27.5 µM (inactive); in assay [4], 15.3 µM (inactive); in assay [5], 13.7 µM (inactive); in assay [6], 14.8 µM (inactive). Moreover, the GI50 in assay [7] was 15.9 µM (inactive); in assay [8] it was 14.1 µM (inactive); in [9], 16 µM (inactive); in assay [10], 15.9 µM (inactive); in [11], 17.3 µM (inactive); in assay [12] it was 19.1 µM (inactive). In addition, the GI50 in assay [13] is 16.1 µM (inactive); in assay [14] it was 14.9 µM (inactive); in [15], 19.3 µM (inactive); in [16], 14 µM (inactive); in assay [17], 20.1 µM (inactive); in [18], 13.9 µM (inactive). The GI50 in assay [19] is 16.4 µM (inactive); in assay [20] it was 21.7 µM (inactive).

For the molecule `O=C(NNC(=O)c1ccccc1O)c1cccc(Br)c1`, the GI50 was 15.2 µM (inactive) in assay [1]; 24.2 µM (inactive) in assay [2]; > 66.7 µM (inactive) in assay [3]; 18.2 µM (inactive) in assay [4]; 5.82 µM (inactive) in assay [5]; > 100 µM (inactive) in assay [6]. For the same molecule, the GI50 in [7] is 7 µM (inactive); in assay [8] it was 6.25 µM (inactive); in [9], 23.6 µM (inactive); in [10] it was > 100 µM (inactive); in assay [11] it was > 42.6 µM (inactive); in [12], 23.2 µM (inactive). The GI50 in assay [13] was > 70 µM (inactive); in assay [14] it was 38.7 µM (inactive); in assay [15], 45.5 µM (inactive); in [16] it was 26.9 µM (inactive); in assay [17], 24.1 µM (inactive); in assay [18], 37.2 µM (inactive). The GI50 was > 100 µM (inactive) in [19] and > 57.5 µM (inactive) in [20].

For `NS(=O)(=O)c1ccc(Nc2c3ccccc3nc3c(C(=O)NC(CO)(CO)CO)cccc23)cc1`, the GI50 in assay [1] is 0.217 µM (active); in assay [2], 0.107 µM (active); in assay [3], 0.154 µM (active); in [4] it was 0.195 µM (active); in assay [5] it was 0.21 µM (active); in assay [6], 0.119 µM (active). The GI50 is 0.19 µM (active) in assay [7]; 0.15 µM (active) in assay [8]; 0.314 µM (active) in assay [9]; 0.164 µM (active) in assay [10]; 0.158 µM (active) in [11]; 0.136 µM (active) in assay [12]. Also, the GI50 in [13] was 0.21 µM (active); in assay [14], 0.0515 µM (active); in [15] it was 0.0598 µM (active); in assay [16], 0.186 µM (active); in assay [17], 0.144 µM (active); in assay [18] it was 0.135 µM (active). For the same molecule, the GI50 in assay [19] is 0.233 µM (active); in [20], 0.272 µM (active).

As to `CC(C)(C)c1cc(C(=O)C2Cc3ccccc3C(=O)O2)cc(C(C)(C)C)c1O` (stereo not drawn), the GI50 in [1] was 5.93 µM (inactive); in assay [2] it was 12.6 µM (inactive); in [3], 29.3 µM (inactive); in [4], 12.1 µM (inactive); in [5], 4.88 µM (inactive); in assay [6], 10.5 µM (inactive). Moreover, the GI50 is 17.1 µM (inactive) in assay [7]; 11.6 µM (inactive) in assay [8]; 12.3 µM (inactive) in assay [9]; 15.3 µM (inactive) in [10]; 12 µM (inactive) in assay [11]; 17.9 µM (inactive) in assay [12]. Further, the GI50 in [13] was 10.9 µM (inactive); in assay [14], 17.6 µM (inactive); in assay [15], 11 µM (inactive); in [16] it was 12.6 µM (inactive); in [17], 10.2 µM (inactive); in assay [18], 14.6 µM (inactive). Moreover, the GI50 in assay [19] was 16.6 µM (inactive); in [20] it was 8.61 µM (inactive).

For the molecule `O=c1c2cc(S(=O)(=O)Nc3ccc(Cl)cc3Cl)ccc2ncn1NS(=O)(=O)c1cccc2ccccc12`, the GI50 in assay [1] was 21.1 µM (inactive); in assay [3], 21.5 µM (inactive); in assay [4], 20.4 µM (inactive); in [5], 14.5 µM (inactive); in assay [6] it was 58.2 µM (inactive); in [7] it was 47.5 µM (inactive). In addition, the GI50 was 24 µM (inactive) in [8]; 14.7 µM (inactive) in [9]; 85.7 µM (inactive) in assay [10]; 22.4 µM (inactive) in assay [11]; 18.6 µM (inactive) in [12]; 38.1 µM (inactive) in [13]. Besides, the GI50 was 43.7 µM (inactive) in assay [14]; 41.7 µM (inactive) in assay [15]; 93.8 µM (inactive) in assay [16]; 30.5 µM (inactive) in assay [17]; > 100 µM (inactive) in assay [18]; 61.5 µM (inactive) in assay [19]. For the same molecule, the GI50 in assay [20] is 48 µM (inactive).

`COC(=O)C(C)N(C)C(=O)[C@H](CC(N)=O)N(C)C(=O)[C@@H]1CCCN1C(=O)[C@H](C(C)C)N(C)C(=O)C(C(C)C)N(C)C(=O)[C@H](Cc1ccccc1)N(C)C(=O)C(NC(=O)OC(C)(C)C)C(C)C` (stereo partly drawn) (Boc-[ξV][NMeF][ξNMeV][NMeV]P[NMeN][ξNMeA]-OMe): the GI50 in assay [1] is 12.4 µM (inactive); in assay [2] it was 17.2 µM (inactive); in assay [3] it was 10.8 µM (inactive); in [4], 16.3 µM (inactive); in [5] it was 15.6 µM (inactive); in [6], 11.2 µM (inactive). Further, the GI50 in assay [7] was > 50 µM (inactive); in assay [8], 17.5 µM (inactive); in assay [9], > 50 µM (inactive); in assay [10], 21.2 µM (inactive); in assay [11], 11.2 µM (inactive); in assay [12] it was 12.1 µM (inactive). The GI50 in [13] was 9.1 µM (inactive); in assay [14], 13.3 µM (inactive); in [15], > 50 µM (inactive); in assay [16], 15.9 µM (inactive); in assay [17], 16.3 µM (inactive); in assay [18] it was 17.8 µM (inactive). Besides, the GI50 in assay [19] is > 50 µM (inactive); in assay [20], 22.6 µM (inactive).

As for `OCC(O)C(O)C(O)C(O)c1nc2cc(Cl)ccc2[nH]1` (stereo not drawn), the GI50 was > 100 µM (inactive) in assay [1]; > 100 µM (inactive) in assay [2]; > 100 µM (inactive) in assay [3]; > 100 µM (inactive) in [4]; 2.14 µM (inactive) in [5]; > 100 µM (inactive) in assay [6]. Further, the GI50 is > 100 µM (inactive) in assay [7]; > 100 µM (inactive) in [8]; > 100 µM (inactive) in assay [9]; > 100 µM (inactive) in assay [10]; > 100 µM (inactive) in [11]; 26.2 µM (inactive) in [12]. In addition, the GI50 in [13], in assay [14], in assay [15], in assay [16], in [17] and in assay [18] was > 100 µM (inactive) each time. The GI50 in assay [19] and in [20] was > 100 µM (inactive) each time.

As to `C/C=C/COc1cc(NC(=S)OC(C)C)ccc1Cl.C/C=C\COc1cc(NC(=S)OC(C)C)ccc1Cl`, the GI50 is 70.1 µM (inactive) in [1]; 16.2 µM (inactive) in [2]; 17.7 µM (inactive) in assay [3]; 23.8 µM (inactive) in [4]; 19.3 µM (inactive) in assay [5]; 16.9 µM (inactive) in assay [6]. Moreover, the GI50 is 17.7 µM (inactive) in assay [7]; 14.1 µM (inactive) in assay [8]; 12.6 µM (inactive) in [9]; 14.9 µM (inactive) in [10]; 17.4 µM (inactive) in assay [11]; 17.5 µM (inactive) in assay [12]. In addition, the GI50 in assay [13] was 13.6 µM (inactive); in assay [14] it was 17.6 µM (inactive); in [15], 16.8 µM (inactive); in assay [16], 24.2 µM (inactive); in assay [17] it was 17.4 µM (inactive); in assay [18], 15 µM (inactive). The GI50 is 19 µM (inactive) in [19] and 16.1 µM (inactive) in [20].

For the molecule `O=C1C(/C=N/CCc2c[nH]c3ccccc23)C(C(F)(F)F)=NN1c1nc2ccccc2s1` (stereo not drawn), the GI50 in [1] is 22.2 µM (inactive); in assay [2], 18.3 µM (inactive); in assay [3] it was 44.1 µM (inactive); in [4], 36.7 µM (inactive); in assay [5] it was 19.8 µM (inactive); in [6] it was 34.8 µM (inactive). Moreover, the GI50 in assay [7] is 27.4 µM (inactive); in assay [8], 19.5 µM (inactive); in assay [9], 23.1 µM (inactive); in assay [10], 25.4 µM (inactive); in [12] it was 26.4 µM (inactive); in [13], 28.8 µM (inactive). The GI50 in assay [14] is 17.7 µM (inactive); in [15] it was 26.7 µM (inactive); in assay [16], 30.7 µM (inactive); in assay [17] it was 31.6 µM (inactive); in assay [18], 29.6 µM (inactive); in assay [19] it was 29.2 µM (inactive). Besides, the GI50 in assay [20] was 32.8 µM (inactive).
